We go through nine molecules from patent publication US20020016330A1, “Materials and methods for killing nematodes and nematode eggs” (priority 2000, published 2002).

In assay [1] the test system is Caenorhabditis elegans. Description: C. elegans L1 nematicidal dose response, 5 day visual viability score (3-fold dilutions). The format is in vivo. Details: key: Dead: only stiff L1s (no movement); Dead (L4): worms are dead, but at a later larval stage; majority of worms are L1 (based on size); majority of worms are L2 (based on size); majority of worms are L3 (based on size); majority of worms are L4 (based on size); AD: majority of worms are adult; #AD: 5 adult worms or less; B!: sterile (0-25 progeny); B: low broodsize (25-100 progeny); ˜B: moderate broodsize (100-250 progeny); <: reduced broodsize (250-500 progeny); OK: no effect (˜1000+ progeny). The conditions noted are these: for 5 Day Visual Score V6: 0.3 μM; for 5 Day Visual Score V5: 0.9 μM; for 5 Day Visual Score V4: 2.6 μM; for 5 Day Visual Score V3: 7.8 μM; for 5 Day Visual Score V2: 23.3 μM; for 5 Day Visual Score V1: 70 μM. As to the method:
Caenorhabditis elegans adults were grown on Nematode Growth Medium (NGM) until they produced eggs, then the adults were removed.
The eggs were allowed to hatch, and the L1 larvae collected. See The Nematode Caenorhabditis elegans (1988) Cold Spring Harbor Laboratory Press. Using a Matrix Programmable Pipette, the L1s were distributed into 96-well tissue culture plates, 20 L1 in 50 μl NGM per well. Antibiotic/Antimyotic was added to each well, and 1% by weight E. coli strain HB101. The subject anthelmintic compounds were stored at 5 mM in 100% DMSO. 0.7 μl of compounds 1-31 were added to the left-most column of wells to yield a final concentration of 70 μM in 1.4% DMSO, with 1.4% DMSO only as the control. The compounds were then subjected to 5 more 3-fold dilutions from left to right to yield 6 column concentrations of 70 μM, 23.3 μM, 7.8 μM, 2.6 μM, 0.9 μM, and 0.3 μM. Plates were stored in air-tight Rubbermaid plastic boxes at 20° C. The nematodes had cleared all control wells by day 4, and nematode viability was scored by visual examination under a 100× dissecting microscope on day 5. A visual viability scoring system was used as follows:
Column VI has a compound concentration of 70 μM with sequential 3-fold dilutions reported in columns V2, V3, V4, V5, and V6, respectively, such that the V6 concentration was 0.3 μM.
(§1) The nematicidal activity of anthelmintic Compositions 48-68 were determined in accordance with the procedure outlined in Example 2.

The test system of assay [2] is Caenorhabditis elegans. Description: Initial HTS Run (mOD, % Run, visual score). Particulars: in vivo. Details: key to Initial HTS Run Visual Score: Dead: only stiff L1s (no movement); Dead (L4): worms are dead, but at a later larval stage; majority of worms are L1 (based on size); majority of worms are L2 (based on size); majority of worms are L3 (based on size); majority of worms are L4 (based on size); AD: majority of worms are adult; #AD: 5 adult worms or less; B!: sterile (0-25 progeny); B: low broodsize (25-100 progeny); ˜B: moderate broodsize (100-250 progeny); <: reduced broodsize (250-500 progeny); OK: no effect (˜1000+ progeny). As to the method:
as §1

Assay [3] relates to Caenorhabditis elegans. The assay is described as follows: Follow-up HTS Run (mOD, % Run, visual score). Details: key to Follow-up HTS Run Visual Score: Dead: only stiff L1s (no movement); Dead (L4): worms are dead, but at a later larval stage; majority of worms are L1 (based on size); majority of worms are L2 (based on size); majority of worms are L3 (based on size); majority of worms are L4 (based on size); AD: majority of worms are adult; #AD: 5 adult worms or less; B!: sterile (0-25 progeny); B: low broodsize (25-100 progeny); ˜B: moderate broodsize (100-250 progeny); <: reduced broodsize (250-500 progeny); OK: no effect (˜1000+ progeny). Particulars: in vivo. As to the method:
as §1

In assay [4] the test system is root-knot nematode, Meloidogyne incognita. Particulars: in vivo; cited from earlier work.
[5] abbreviates: Table 3, procedure of Example 2.

Each structure is given as a SMILES string. Bounds are passed on as bounds.

In the case of `CC(C)(C)c1csc(NC(=O)Cc2cn(Cc3cccnc3)c3ccc(Cl)cc23)n1` [AKC 162], in the assay with Caenorhabditis elegans [1] (setting [5]), the “5 Day Visual Score V6” value is listed as “OK (no effect (˜1000+ progeny))”, the “5 Day Visual Score V5” value is listed as “OK (no effect (˜1000+ progeny))”, the “5 Day Visual Score V4” value is on record as “OK (no effect (˜1000+ progeny))” and the “5 Day Visual Score V3” value is “OK (no effect (˜1000+ progeny))”. Besides, in the assay with Caenorhabditis elegans [1] (setting [5]), the “5 Day Visual Score V2” value is “OK (no effect (˜1000+ progeny))” and the “5 Day Visual Score V1” value is given as “< (reduced broodsize (250-500 progeny))”. For the same molecule, in the assay with Caenorhabditis elegans [2], the “Initial HTS Run % Run” value is 111%, the “Initial HTS Run Visual Score” value is given as “L2/L3/1AD/B!” and the “Initial HTS Run mOD” value is listed as 136 mOD. Further, in the assay on Caenorhabditis elegans [3], the “Follow-up HTS Run % Run” value amounted to 111%, the “Follow-up HTS Run Visual Score” value was “B (low broodsize (25-100 progeny))” and the “Follow-up HTS Run mOD” value came out at 179 mOD.

Regarding `CC(=O)Nc1ccc(S(=O)(=O)N2CCN(C(=O)c3cc(C(F)(F)F)cc(C(F)(F)F)c3)CC2C(=O)NCc2ccccc2)cc1` (stereo not drawn) [AKC 163], in the assay with Caenorhabditis elegans [1] (setting [5]), the “5 Day Visual Score V6” value is on record as “OK (no effect (˜1000+ progeny))”, the “5 Day Visual Score V5” value is reported as “OK (no effect (˜1000+ progeny))”, the “5 Day Visual Score V4” value is reported as “OK (no effect (˜1000+ progeny))” and the “5 Day Visual Score V3” value is reported as “OK (no effect (˜1000+ progeny))”. Besides, the “5 Day Visual Score V2” value in the assay on Caenorhabditis elegans [1] (setting [5]) is “< (reduced broodsize (250-500 progeny))”. In addition, in the assay with Caenorhabditis elegans [2], the “Initial HTS Run % Run” value was found to be 119%, the “Initial HTS Run Visual Score” value is listed as “L2/L3(DEAD)” and the “Initial HTS Run mOD” value is listed as 146 mOD. Further, in the assay with Caenorhabditis elegans [3], the “Follow-up HTS Run % Run” value amounted to 136% and the “Follow-up HTS Run mOD” value is given as 219 mOD.

On to `CCCCCCCCS(=O)(=O)N1CCN(C(=O)c2cc(C(F)(F)F)cc(C(F)(F)F)c2)CC1C(=O)NCc1ccccc1` (stereo not drawn) [AKC 165], for which, in the assay on Caenorhabditis elegans [1] (setting [5]), the “5 Day Visual Score V6” value is “OK (no effect (˜1000+ progeny))”, the “5 Day Visual Score V5” value was “OK (no effect (˜1000+ progeny))”, the “5 Day Visual Score V4” value is reported as “OK (no effect (˜1000+ progeny))” and the “5 Day Visual Score V3” value is listed as “< (reduced broodsize (250-500 progeny))”. For the same molecule, in the assay with Caenorhabditis elegans [2], the “Initial HTS Run % Run” value was 115% and the “Initial HTS Run mOD” value was determined as 142 mOD. Further, in the assay with Caenorhabditis elegans [3], the “Follow-up HTS Run % Run” value worked out at 126%, the “Follow-up HTS Run Visual Score” value was “Dead” and the “Follow-up HTS Run mOD” value was 203 mOD.

`COc1ccc(CC(=O)N2CCN(S(=O)(=O)c3ccc(OC)c(OC)c3)C(C(=O)NCc3cc(C(F)(F)F)cc(C(F)(F)F)c3)C2)cc1OC` (stereo not drawn) [AKC 168]: in the assay with Caenorhabditis elegans [1] (setting [5]), the “5 Day Visual Score V6” value was “OK (no effect (˜1000+ progeny))”, the “5 Day Visual Score V5” value is recorded as “OK (no effect (˜1000+ progeny))”, the “5 Day Visual Score V4” value is reported as “OK (no effect (˜1000+ progeny))” and the “5 Day Visual Score V3” value is recorded as “OK (no effect (˜1000+ progeny))”. For the same molecule, in the assay with Caenorhabditis elegans [1] (setting [5]), the “5 Day Visual Score V2” value is on record as “OK (no effect (˜1000+ progeny))” and the “5 Day Visual Score V1” value is given as “L3/#AD/B!”. In the assay on Caenorhabditis elegans [2], the “Initial HTS Run % Run” value stood at 90%, the “Initial HTS Run Visual Score” value came to 5AD/B and the “Initial HTS Run mOD” value worked out at 111 mOD. Moreover, in the assay on Caenorhabditis elegans [3], the “Follow-up HTS Run % Run” value is listed as 135%, the “Follow-up HTS Run Visual Score” value is listed as 3AD/˜B and the “Follow-up HTS Run mOD” value stood at 217 mOD.

Take `Cc1cccc2scc(CC(=O)Nc3nc(C(C)(C)C)cs3)c12` [AKC 170]: in the assay with Caenorhabditis elegans [1] (setting [5]), the “5 Day Visual Score V6” value was “OK (no effect (˜1000+ progeny))”, the “5 Day Visual Score V5” value is reported as “OK (no effect (˜1000+ progeny))”, the “5 Day Visual Score V4” value is “OK (no effect (˜1000+ progeny))” and the “5 Day Visual Score V3” value is given as “OK (no effect (˜1000+ progeny))”. In the assay with Caenorhabditis elegans [1] (setting [5]), the “5 Day Visual Score V2” value is reported as “#AD/” and the “5 Day Visual Score V1” value was “L2”. In the assay on Caenorhabditis elegans [2], the “Initial HTS Run % Run” value is given as 111%, the “Initial HTS Run Visual Score” value is “L3” and the “Initial HTS Run mOD” value was determined as 136 mOD. In the assay with Caenorhabditis elegans [3], the “Follow-up HTS Run % Run” value was determined as 139%, the “Follow-up HTS Run Visual Score” value was “L4/AD/B!” and the “Follow-up HTS Run mOD” value came to 223 mOD.

With `CCCCCCCCS(=O)(=O)N1CCN(C(=O)C=Cc2cccc(C(F)(F)F)c2)CC1C(=O)NCc1ccc(C(F)(F)F)cc1` (stereo not drawn) [AKC 171], in the assay with Caenorhabditis elegans [1] (scored day 5), the “5 Day Visual Score V3” value was “Dead(L4)/#A”, the “5 Day Visual Score V2” value is listed as “L2” and the “5 Day Visual Score V1” value is “Dead”. Also, in the assay with Caenorhabditis elegans [1] (setting [5]), the “5 Day Visual Score V3” value is “Dead”, the “5 Day Visual Score V2” value was “L2” and the “5 Day Visual Score V1” value is recorded as “Dead”. Further, in the assay on Caenorhabditis elegans [2], the “Initial HTS Run % Run” value is 101% and the “Initial HTS Run mOD” value was determined as 124 mOD. In the assay with Caenorhabditis elegans [3], the “Follow-up HTS Run % Run” value turned out to be 111%, the “Follow-up HTS Run Visual Score” value is on record as “Dead” and the “Follow-up HTS Run mOD” value was 179 mOD.

With `CCCCCCCCS(=O)(=O)N1CCN(C(=O)C=Cc2cccc(C(F)(F)F)c2)CC1C(=O)NCc1ccccc1C(F)(F)F` (stereo not drawn) [AKC 173], in the assay with Caenorhabditis elegans [1] (setting [5]), the “5 Day Visual Score V6” value was “OK (no effect (˜1000+ progeny))”, the “5 Day Visual Score V5” value is “OK (no effect (˜1000+ progeny))”, the “5 Day Visual Score V4” value is “OK (no effect (˜1000+ progeny))” and the “5 Day Visual Score V3” value is listed as “OK (no effect (˜1000+ progeny))”. In the assay with Caenorhabditis elegans [2], the “Initial HTS Run % Run” value was 98% and the “Initial HTS Run mOD” value is given as 120 mOD. Further, in the assay on Caenorhabditis elegans [3], the “Follow-up HTS Run % Run” value turned out to be 107% and the “Follow-up HTS Run mOD” value worked out at 172 mOD.

With `CC(C)(C)c1csc(NC(=O)CC2CCCc3ccccc32)n1` (stereo not drawn) [AKC 175], in the assay on Caenorhabditis elegans [1] (setting [5]), the “5 Day Visual Score V6” value was “OK (no effect (˜1000+ progeny))”, the “5 Day Visual Score V5” value is “OK (no effect (˜1000+ progeny))”, the “5 Day Visual Score V4” value is “OK (no effect (˜1000+ progeny))” and the “5 Day Visual Score V3” value was “OK (no effect (˜1000+ progeny))”. Also, in the assay on Caenorhabditis elegans [1] (setting [5]), the “5 Day Visual Score V2” value was “OK (no effect (˜1000+ progeny))” and the “5 Day Visual Score V1” value is “< (reduced broodsize (250-500 progeny))”. In the assay with Caenorhabditis elegans [2], the “Initial HTS Run % Run” value is given as 85%, the “Initial HTS Run Visual Score” value is “L4/AD/B” and the “Initial HTS Run mOD” value is listed as 104 mOD. Further, in the assay with Caenorhabditis elegans [3], the “Follow-up HTS Run % Run” value was 99%, the “Follow-up HTS Run Visual Score” value is “L4/AD/B!” and the “Follow-up HTS Run mOD” value is 159 mOD.

Take `CC[C@H](C)[C@H]1O[C@]2(CC(O)[C@@H]1C)C[C@@H]1C[C@@H](C/C=C(\C)[C@@H](OC3CC(OC)C(OC4CC(OC)C(O)C(C)O4)C(C)O3)[C@@H](C)/C=C/C=C3\CO[C@@H]4[C@H](O)C(C)=C[C@@H](C(=O)O1)[C@]34O)O2` (stereo partly drawn) [Avermectin B2a]: in assay [4], the “activity against the root-knot nematode” value is given as “active”.
